Assay results from patent US9346754B2, “Method of treating advanced non-alcoholic steatohepatitis” (priority 2014, dated 2016).
Entries after “also recorded” stand apart in the source; their conditions may differ.

Assays:
Format in all cases: in vivo, C57BL/6 mice
[1] = tested on: STAM Model of Advanced Non-Alcoholic Steatohepatitis; experiment: Sirius red staining, percentage of fibrosis area in STAM mice; conditions: for Sirius red-positive area (fibrosis area): mean ± SD
Protocol: For HE staining, sections were cut from paraffin blocks of liver tissue prefixed in Bouin's solution and stained with Lillie-Mayer's Hematoxylin (Muto Pure Chemicals, Japan) and eosin solution (Wako Pure Chemical Industries). NAFLD Activity score (NAS) was calculated according to the criteria of Kleiner (Kleiner D E. et al., Hepatology, 2005; 41:1313). To visualize collagen deposition, Bouin's fixed liver sections were stained using picro-Sirius red solution (Waldeck, Germany). For quantitative analysis of fibrosis area, inflammation area, and semi-quantification of α-SMA, bright field images of Sirius red-stained, F4/80- and α-SMA-immunostained sections were captured around the central vein using a digital camera (DFC280: Leica Microsystems, Germany) at 200-fold magnification, and the positive areas in 5 fields/section were measured using ImageJ software (National Institute of Health, USA). […] P values<0.05 were considered statistically significant. […] Results were expressed as mean±SD.

[2] = tested on: STAM Model of Advanced Non-Alcoholic Steatohepatitis; experiment: F4/80 immunostaining, percentage of inflammation area in STAM mice; conditions: for F4/80-positive area (inflammation area): mean ± SD
Protocol: (§1) For immunohistochemistry, sections were cut from frozen liver tissues embedded in Tissue-Tek O.C.T. compound and fixed in acetone. Endogenous peroxidase activity was blocked using 0.03% H2O2 for 5 minutes, followed by incubation with Block Ace (Dainippon Sumitomo Pharma, Japan) for 10 minutes. The sections were incubated with a 200-fold dilution of anti-α-SMA (Epitomics, USA) or anti-F4/80 antibody (BMA Biomedicals, Switzerland) 1 hour at room temperature. […] For quantitative analysis of fibrosis area, inflammation area, and semi-quantification of α-SMA, bright field images of Sirius red-stained, F4/80- and α-SMA-immunostained sections were captured around the central vein using a digital camera (DFC280: Leica Microsystems, Germany) at 200-fold magnification, and the positive areas in 5 fields/section were measured using ImageJ software (National Institute of Health, USA). […] P values<0.05 were considered statistically significant. […] Results were expressed as mean±SD.

[3] = tested on: STAM Model of Advanced Non-Alcoholic Steatohepatitis; experiment: Alpha-SMA immunostaining, α-SMA-positive area in STAM mice; conditions: for Alpha-SMA-positive area: mean ± SD
Protocol: as §1

TIMP-1 mRNA = experiment: Liver gene expression by quantitative RT-PCR: TIMP-1; conditions: 10 mg/kg oral once daily, 8 to 12 weeks of age (MN-001-low; Telmisartan)
Protocol: (§2) Total RNA was extracted from liver samples using RNAiso (Takara Bio, Japan) according to the manufacturer's instructions. One μg of RNA was reverse-transcribed using a reaction mixture containing 4.4 mM MgCl2 (F. Hoffmann-La Roche, Switzerland), 40 U RNase inhibitor (Toyobo, Japan), 0.5 mM dNTP (Promega, USA), 6.28 μM random hexamer (Promega), 5× first strand buffer (Promega), 10 mM dithiothreitol (Invitrogen, USA) and 200 U MMLV-RT (Invitrogen) in a final volume of 20 μL. The reaction was carried out for 1 hour at 37° C., followed by 5 minutes at 99° C. Real-time PCR was performed using real-time PCR DICE and SYBR premix Taq (Takara Bio). To calculate the relative mRNA expression level, the expression of each gene was normalized to that of reference gene 36B4 (gene symbol: Rp1p0). Information of PCR-primer sets are described in Table 1. [table] […] P values<0.05 were considered statistically significant. […] Results were expressed as mean±SD.

Collagen Type 1 mRNA = experiment: Liver gene expression by quantitative RT-PCR: Collagen Type 1
Protocol: as §2

Alpha-SMA mRNA = experiment: Liver gene expression by quantitative RT-PCR: Alpha-SMA
Protocol: as §2

Five-Lipoxygenase mRNA = experiment: Liver gene expression by quantitative RT-PCR: Five-Lipoxygenase
Protocol: as §2

[4] = Liver weight and liver-to-body weight ratio in STAM mice
Description: Mice in all groups will be sacrificed for the following assays at 12 weeks of age. Individual liver weight will be measured, and liver-to-body weight ratio will be calculated. Liver hydroxyproline will be quantified by a hydrolysis method. Histopathological analyses of liver sections (according to routine methods) HE staining (to estimate NAFLD Activity score), Sirius-red staining (to estimate the percentage of fibrosis area). F4/80 immunostaining (to estimate the percentage of inflammation area), Alpha-SMA immunostaining (to estimate the percentage of a-SMA positive area) are performed. Gene expression assays using total RNA from the liver Real-time RT-PCR analysis will be performed for TIMP-1, Collagen Type 1, α-SMA, 5-lipoxygenase, FLAP and LTC4 synthase are also performed. Statistical tests will be performed using Bonferroni Multiple Comparison Test. P values<0.05 will be considered statistically significant. […] P values<0.05 were considered statistically significant. […] Results were expressed as mean±SD.

[5] = 10 mg/kg oral once daily, 8 to 12 weeks of age (MN-001-low; Telmisartan)
[6] = 30 mg/kg oral once daily, 8 to 12 weeks of age (MN-001-middle)
[7] = 100 mg/kg oral once daily, 8 to 12 weeks of age (MN-001-high)
[8] = 10 mg/kg oral once daily, 8 to 12 weeks of age (MN-001-low n=10; Telmisartan n=9)
[9] = 30 mg/kg oral once daily, 8 to 12 weeks of age (MN-001-middle, n=10)
[10] = 100 mg/kg oral once daily, 8 to 12 weeks of age (MN-001-high, n=10)
[11] = any doses of MN-001 (10, 30, 100 mg/kg oral once daily, 8 to 12 weeks of age)
[12] = any doses of MN-001 (10, 30, 100 mg/kg oral once daily)
[13] = Telmisartan 10 mg/kg oral once daily, 8 to 12 weeks of age

CCCc1c(SCCCOc2ccc(C(C)=O)c(OCCCC(=O)O)c2CCC)ccc(C(C)=O)c1O [MN-001]
Fibrosis area compared with the Vehicle group [1, 5]: significantly decreased
Fibrosis area compared with the Vehicle group [1, 6]: tended to decrease
Fibrosis area compared with the Vehicle group [1, 7]: significantly decreased
Sirius red-positive area (fibrosis area) [1, 8]: 0.75 ± 0.40%
Sirius red-positive area (fibrosis area) [1, 9]: 0.95 ± 0.37%
Sirius red-positive area (fibrosis area) [1, 10]: 0.65 ± 0.28%
Inflammation area compared with the Vehicle group [2, 11]: no significant differences
F4/80-positive area (inflammation area) [2, 8]: 6.47 ± 2.67%
F4/80-positive area (inflammation area) [2, 9]: 6.36 ± 1.59%
F4/80-positive area (inflammation area) [2, 10]: 5.14 ± 0.89%
α-SMA-positive area compared with the Vehicle group [3, 5]: significantly decreased
α-SMA-positive area compared with the Vehicle group [3, 6]: no significant difference
α-SMA-positive area compared with the Vehicle group [3, 7]: significantly decreased
Alpha-SMA-positive area [3, 8]: 0.45 ± 0.11%
Alpha-SMA-positive area [3, 9]: 0.76 ± 0.19%
Alpha-SMA-positive area [3, 10]: 0.48 ± 0.21%
TIMP-1 mRNA expression levels compared with the Vehicle group (TIMP-1 mRNA): significantly down-regulated
Collagen Type 1 mRNA expression levels compared with the Vehicle group (Collagen Type 1 mRNA; [7]): tended to decrease
α-SMA mRNA expression levels compared with the Vehicle group (Alpha-SMA mRNA; [11]): no significant differences
Five-Lipoxygenase mRNA expression levels compared with the Vehicle group (Five-Lipoxygenase mRNA; [5]): no significant differences
Five-Lipoxygenase mRNA expression levels compared with the Vehicle group (Five-Lipoxygenase mRNA; [6]): no significant differences
Five-Lipoxygenase mRNA expression levels compared with the Vehicle group (Five-Lipoxygenase mRNA; [7]): tended to decrease
Mean liver weight compared with the Vehicle group [4, 12]: no significant differences
Mean liver-to-body weight ratio compared with the Vehicle group [4, 12]: no significant differences

CCCc1nc2c(C)cc(-c3nc4ccccc4n3C)cc2n1Cc1ccc(-c2ccccc2C(=O)O)cc1 [Telmisartan, reference compound]
Fibrosis area compared with the Vehicle group [1, 5]: significantly decreased
Sirius red-positive area (fibrosis area) [1, 8]: 0.49 ± 0.19%
Inflammation area compared with the Vehicle group [2, 13]: significantly decreased; also recorded: tended to decrease
F4/80-positive area (inflammation area) [2, 8]: 3.79 ± 1.60%
α-SMA-positive area compared with the Vehicle group [3, 5]: significantly decreased
Alpha-SMA-positive area [3, 8]: 0.35 ± 0.14%
TIMP-1 mRNA expression levels compared with the Vehicle group (TIMP-1 mRNA): significantly down-regulated
Collagen Type 1 mRNA expression levels compared with the Vehicle group (Collagen Type 1 mRNA; [13]): significantly down-regulated
Alpha-SMA mRNA expression levels compared with the Vehicle group (Alpha-SMA mRNA; [13]): significantly down-regulated
Five-Lipoxygenase mRNA expression levels compared with the Vehicle group (Five-Lipoxygenase mRNA; [5]): tended to decrease
Mean liver weight compared with the Vehicle group [4, 13]: significantly decreased; also recorded: significant decrease
Mean liver-to-body weight ratio compared with the Vehicle group [4, 13]: significant decrease
